# Key:
# GluN1/GluN2A^M112I = biological target: T1, GluN1/GluN2A^M112I (Rattus norvegicus, UniProt P35439+Q00959, M112I); assay: Patch clamp in HEK293 cells expressing mutant GluN1/GluN2A M112I; assay type: cell-based
# T1 construct: expressed in transfected cells; host or cells: HEK293
# Procedure: Whole cell patch-clamp recordings were performed under voltage-clamp mode using an Axopatch 200B or 1D patch-clamp amplifier (Molecular Devices). Whole-cell currents were recorded at a holding potential of −60 mV unless indicated elsewhere, and signals were filtered at 2 kHz, digitized at 10 kHz (Digidata 1322A). Recording pipettes (3-5 MΩ) were filled with intracellular solution containing (mM): CsCl 140, HEPES 10, Mg-ATP 4, QX-314 5, pH 7.20; osmolarity, 290-295 mOsm. BAPTA (10 mM) was added in the intracellular solution (unless otherwise specified). The coverslips were continuously superfused with extracellular solution containing (mM): NaCl 140, KCl 5.4, HEPES 10, CaCl2 1.3, glucose 20, pH 7.4; osmolarity, 305-315 mOsm. NMDA-induced currents were applied by NMDA through perfusion fast-step (Warner Instruments). With perfusion fast-step system, NMDA application was achieved by using a two-square barrel glass tubing and depending on the age of the cultured neurons, CNQX (10 μM), TTX (0.5 μM) or BIC (10 μM) were added in the extracellular solution to minimize the activation of ionotropic glutamate receptors and voltage-gated sodium channels, respectively. All experiments were performed at room temperature. Recordings from at least six HEK293 cells/neurons were performed for all active compounds. […]
# [1] = tested on: rat model of middle cerebral artery occlusion (MCAo); assay: Cerebral ischemia (MCAo) infarct volume; assay type: in vivo
# Source text: Adult male Sprague Dawley rats weighting ˜200 g were anesthetized, and the middle cerebral artery (MCA) was exposed by making a craniotomy window (2 mm in diameter) 1 mm rostral to the anterior junction of the zygoma and the squamosal bone. We used the suture ligation method to achieve three-vessel occlusion. The exposed MCA was ligated with a square knot using a 10-0 nylon suture. Next, the bilateral common carotid arteries (CCAs) were clamped with nontraumatic arterial clips. Successful surgery was confirmed by a marked drop in regional cerebral blood flow, monitored by a laser Doppler flowmeter (PF-5010, Periflux system; Perimed AB). After 90 min ischemia, the suture and clips were removed to allow instant reperfusion. Experimental rats were subdivided into groups to receive different doses of Npam43 or saline/vehicle (as indicated) via femoral vein injection. 2,3,5-Triphenyltetrazolium chloride (TTC) was used to evaluate infarct size in stained brain sections. […]
# The rats were anesthetized, with body temperature maintained at 37.0±0.5° C. with a heating pad during imaging. […] The non-infarct areas were drawn manually from slice to slice and the volumes were measured with Voxtool analysis software (General Electric). The infarct size was quantified by subtracting the non-infarct volume of the ischemic hemisphere from the total volume of the contralateral hemisphere. […]
# cortical neurons = assay: NMDA-induced excitotoxicity (LDH release) in cortical neurons; assay type: cell-based, rat; details: in the absence of NVP-AAM007; FIG. 16
# Procedure: Lactate dehydrogenase (LDH) is a cytoplasmic enzyme that can convert nicotinamide adenine dinucleotide (NAD) into NADH (the reduced form). LDH is released from cells into culture medium when the plasma membrane integrity is compromised. Therefore, the amount of released LDH represents the degree of cell death. In this study, the extracellular LDH level was measured using an in vitro toxicology assay kit obtained from Sigma-Aldrich (no. TOX-7). The basis of this LDH assay is as follows: (1) LDH reduces NAD into NADH, (2) the resulting NADH is then used in the stoichiometric conversion of a tetrazolium dye, and (3) the resulting colored compound is measured by a spectrophotometric microplate reader at a wavelength of 490 nm. The cell death rate was expressed as a ratio (%) between the absorbance of the treated group and that of the control group.
# Cortical cultures were treated with Npam43, and assessed for NMDA-induced excitotoxicity after 20-24 hrs by measuring lactate dehydrogenase (LDH) release. […] LDH release was measured using an in vitro toxicology assay kit obtained from Sigma-Aldrich (no. TOX-7). The cell death rate was expressed as a ratio (%) between the absorbance of the treated group and that of the control group.
# T1 sequence (Q00959 23-1464 M112I, other chains not shown): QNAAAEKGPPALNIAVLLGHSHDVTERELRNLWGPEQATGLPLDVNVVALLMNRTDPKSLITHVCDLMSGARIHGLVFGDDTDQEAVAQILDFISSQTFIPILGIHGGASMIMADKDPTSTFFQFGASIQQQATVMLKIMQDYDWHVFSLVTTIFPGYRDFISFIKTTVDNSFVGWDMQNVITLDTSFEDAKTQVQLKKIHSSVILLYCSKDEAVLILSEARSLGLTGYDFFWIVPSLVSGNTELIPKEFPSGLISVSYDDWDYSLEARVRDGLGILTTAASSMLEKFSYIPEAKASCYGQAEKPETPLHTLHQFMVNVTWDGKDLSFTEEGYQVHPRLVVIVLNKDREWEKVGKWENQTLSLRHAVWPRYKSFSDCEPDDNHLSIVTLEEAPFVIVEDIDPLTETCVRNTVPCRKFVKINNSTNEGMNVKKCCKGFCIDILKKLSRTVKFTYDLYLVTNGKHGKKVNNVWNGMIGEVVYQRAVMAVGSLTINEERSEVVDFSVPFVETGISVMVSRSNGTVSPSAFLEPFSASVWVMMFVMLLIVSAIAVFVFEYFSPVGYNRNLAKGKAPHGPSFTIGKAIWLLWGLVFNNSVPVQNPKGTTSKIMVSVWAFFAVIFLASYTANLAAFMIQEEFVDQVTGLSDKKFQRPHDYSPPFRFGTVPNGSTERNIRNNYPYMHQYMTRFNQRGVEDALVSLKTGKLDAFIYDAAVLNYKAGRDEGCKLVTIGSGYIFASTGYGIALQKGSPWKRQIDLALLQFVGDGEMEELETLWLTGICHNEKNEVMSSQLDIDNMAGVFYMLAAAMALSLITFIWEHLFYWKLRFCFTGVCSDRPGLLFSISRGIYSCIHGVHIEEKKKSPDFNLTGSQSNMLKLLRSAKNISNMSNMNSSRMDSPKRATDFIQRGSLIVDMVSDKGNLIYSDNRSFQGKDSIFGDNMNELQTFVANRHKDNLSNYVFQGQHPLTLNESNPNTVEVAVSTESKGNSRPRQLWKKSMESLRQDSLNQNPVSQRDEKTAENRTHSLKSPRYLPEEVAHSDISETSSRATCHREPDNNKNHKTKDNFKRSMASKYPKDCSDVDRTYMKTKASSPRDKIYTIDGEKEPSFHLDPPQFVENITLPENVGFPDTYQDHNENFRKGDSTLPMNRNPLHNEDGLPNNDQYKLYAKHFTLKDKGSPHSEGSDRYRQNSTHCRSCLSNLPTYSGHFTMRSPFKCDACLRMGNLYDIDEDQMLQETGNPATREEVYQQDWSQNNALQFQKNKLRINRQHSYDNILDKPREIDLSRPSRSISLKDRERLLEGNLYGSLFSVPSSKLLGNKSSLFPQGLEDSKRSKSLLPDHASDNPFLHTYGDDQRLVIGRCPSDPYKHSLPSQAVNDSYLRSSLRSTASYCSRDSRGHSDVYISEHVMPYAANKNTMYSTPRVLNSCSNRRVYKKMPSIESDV
compound,measurement,setting,value
"CCOc1cc(Cl)c(Cl)c(/C=N/NC(=O)c2ccccc2Br)c1O [Npam43, (E)-2-bromo-N′-(2,3-dichloro-5-ethoxy-6-hydroxybenzylidene)benzohydrazide]",Relative potentiation,GluN1/GluN2A^M112I; Table 3,255 ± 19%
same,Net Difference potentiation,GluN1/GluN2A^M112I; normalized to wild-type,+22.2 ± 0.94%
same,"Infarct size, long term evaluation point","[1]; 7 days, MRI scanning, FIG. 25",reduces infarct size
same,Infarct volume,"[1]; MCAo rats, compared to vehicle/saline, 24 h post ischemia (FIG. 24)",reduces infarct volume
same,NMDA-induced excitotoxicity,cortical neurons,reduced

# — patent publication US11166924B2, “N-methyl-d-aspartate receptor allosteric modulators and methods for their use” (Qingdao Primedicine Pharmaceutical Company, Ltd., priority 2016, dated 2021)
